Source: patent US20100105031A1, “METHOD FOR PREDICTION OF THE EFFICACY OF VASCULARIZATION INHIBITOR” (Esai R & D Management Co., Ltd., priority 2005, published 2010)

Columns and labels:
colorectal cancer = conditions: clinical trials; cited from earlier work
AsPC-1 [1] = test: Example 3 antitumor effect, relative tumor volume, subcutaneously transplanted model (AsPC-1); type: in vivo, nude mouse; conditions: FIG. 2
Method: (§1) Human cancer cell lines AsPC-1 and H526 (both strains were purchased from ATCC) were cultured with RPMI1640 (containing 10% FBS) in a 5% CO2 incubator until they reached about 80% confluence. After culturing, cells from each strain were recovered with trypsin-EDTA by conventional procedures. The cells were suspended in phosphate buffer to prepare a cell suspension of 5×10^7 cells/ml. Subsequently, 0.1 ml of the cell suspension was subcutaneously transplanted on the lateral side of each nude mouse. After transplantation, when the tumor volume reached about 50-200 mm^3, administration of 5-(5-fluoro-2-oxo-1,2-dihydroindole-3-ylidenemethyl)-2,4-dimethyl-1H-pyrrole-3-carboxylic acid (2-diethylaminoethyl)amide (100 mg/kg, once a day, one week, oral administration) was started. The 5-(5-fluoro-2-oxo-1,2-dihydroindole-3-ylidenemethyl)-2,4-dimethyl-1H-pyrrole-3-carboxylic acid (2-diethylaminoethyl)amide was prepared based on the disclosure in WO 01/060814. The major axis and minor axis of tumor were measured with a Degimatic Caliper (Mitsutoyo). Then, tumor volume and relative tumor volume were calculated using the following formulas:
(§2) Tumor volume(TV)=tumor major axis(mm)×tumor minor axis^2(mm^2)/2
(§3) Relative tumor volume(RTV)=tumor volume on the measurement day/tumor volume on the starting day of administration

H526 [2] = test: Example 3 antitumor effect, relative tumor volume, subcutaneously transplanted model (H526); type: in vivo, nude mouse; conditions: FIG. 2
Method: as §1, §2, §3

MDA-MB-468 = test: Antitumor effect in human cancer cell line subcutaneously transplanted model (MDA-MB-468); type: in vivo, nude mouse
Source text: (§4) Human cancer cell lines A375 (purchased from Dainippon Pharma Co., Ltd.), SEKI, HMV-1 (these two lines were purchased from JCRB cell bank, National Institute of Biomedical Innovation), FEM (granted from Dr. Fodstad, The Norwegian Radiumhospital Research Foundation), LOX (purchased from AntiCancer), AZ-521 (purchased from Japan Health Science Foundation), MDA-MB-468, DLD-1, HCT116, SW620, PC-3, DU145, AsPC-1, H526, MDA-MB-231, SK-Mel-2, Lovo and A431 (these 12 lines were purchased from ATCC) were cultured with RPMI1640 (containing 10% FBS) in a 5% CO2 incubator until they reached about 80% confluence. After culturing, cells from each line w ere recovered with trypsin-EDTA by conventional procedures. The cells were suspended in phosphate buffer solution to prepare a cell suspension of 1×10^8 cells/ml or 5×10^7 cells/ml. Subsequently, 0.1 ml of the cell suspension was subcutaneously transplanted on the lateral side of each nude mouse. After transplantation, when the tumor volume reached about 100-200 mm^3, administration of 4-(3-chloro-4-(cyclopropylaminocarbonyl)-aminophenoxy)-7-methoxy-6-quinolinecarboxamide was started (100 mg/kg; twice a day; one week; oral administration). […] The major axis and minor axis of tumor were measured with a Degimatic Caliper (Mitsutoyo). Then, tumor volume and ΔT/C were calculated using the following formulas: […]

MDA-MB-231 = test: Antitumor effect in human cancer cell line subcutaneously transplanted model (MDA-MB-231); type: in vivo, nude mouse
Source text: as §4

DU145 = test: Antitumor effect in human cancer cell line subcutaneously transplanted model (DU145); type: in vivo, nude mouse
Source text: as §4

AZ-521 = test: Antitumor effect in human cancer cell line subcutaneously transplanted model (AZ-521); type: in vivo, nude mouse
Source text: as §4

Lovo = test: Antitumor effect in human cancer cell line subcutaneously transplanted model (Lovo); type: in vivo, nude mouse
Source text: as §4

SK-Mel-2 = test: Antitumor effect in human cancer cell line subcutaneously transplanted model (SK-Mel-2); type: in vivo, nude mouse
Source text: as §4

AsPC-1 [3] = test: Antitumor effect in human cancer cell line subcutaneously transplanted model (AsPC-1); type: in vivo, nude mouse
Source text: as §4

A431 = test: Antitumor effect in human cancer cell line subcutaneously transplanted model (A431); type: in vivo, nude mouse
Source text: as §4

SW620 = test: Antitumor effect in human cancer cell line subcutaneously transplanted model (SW620); type: in vivo, nude mouse
Source text: as §4

DLD-1 = test: Antitumor effect in human cancer cell line subcutaneously transplanted model (DLD-1); type: in vivo, nude mouse
Source text: as §4

HCT116 = test: Antitumor effect in human cancer cell line subcutaneously transplanted model (HCT116); type: in vivo, nude mouse
Source text: as §4

A375 = test: Antitumor effect in human cancer cell line subcutaneously transplanted model (A375); type: in vivo, nude mouse
Source text: as §4

LOX = test: Antitumor effect in human cancer cell line subcutaneously transplanted model (LOX); type: in vivo, nude mouse
Source text: as §4

HMV-1 = test: Antitumor effect in human cancer cell line subcutaneously transplanted model (HMV-1); type: in vivo, nude mouse
Source text: as §4

SEKI = test: Antitumor effect in human cancer cell line subcutaneously transplanted model (SEKI); type: in vivo, nude mouse
Source text: as §4

FEM = test: Antitumor effect in human cancer cell line subcutaneously transplanted model (FEM); type: in vivo, nude mouse
Source text: as §4

PC-3 = test: Antitumor effect in human cancer cell line subcutaneously transplanted model (PC-3); type: in vivo, nude mouse
Source text: as §4

H526 [4] = test: Antitumor effect in human cancer cell line subcutaneously transplanted model (H526); type: in vivo, nude mouse
Source text: as §4

[5] = Compound 2 administration group, 100 mg/kg once a day, one week, oral
[6] = class by intensity of antitumor effect (ΔT/C)
[7] = Melanoma, 100 mg/kg twice a day, one week, oral, day 8 vs day 1
[8] = Compound 1 administration group

bevacizumab: human anti-VEGF monoclonal antibody sold by Genentech as Avastin
antitumor effect (colorectal cancer): shown an antitumor effect

CCN(CC)CCNC(=O)c1c(C)[nH]c(/C=C2\C(=O)Nc3ccc(F)cc32)c1C [Compound 2, 5-(5-fluoro-2-oxo-1,2-dihydroindole-3-ylidenemethyl)-2,4-dimethyl-1H-pyrrole-3-carboxylic acid (2-diethylaminoethyl)amide, reference compound]
tumor proliferation (AsPC-1 [1]; [5]): rested | tumor proliferation (H526 [2]; [5]): delayed

COc1cc2nccc(Oc3ccc(NC(=O)NC4CC4)c(Cl)c3)c2cc1C(N)=O [Compound 1, 4-(3-chloro-4-(cyclopropylaminocarbonyl)aminophenoxy)-7-methoxy-6-quinolinecarboxamide]
ΔT/C (MDA-MB-468; MDA-MB-468, Breast cancer, 100 mg/kg twice a day, one week, oral, day 8 vs day 1): −53% | Classification (MDA-MB-468; MDA-MB-468, class by intensity of antitumor effect (ΔT/C)): Shrinkage line (Cancer cell lines which showed ΔT/C<−30% were classified as shrinkage lines) | ΔT/C (MDA-MB-231; MDA-MB-231, Breast cancer, 100 mg/kg twice a day, one week, oral, day 8 vs day 1): −33% | Classification (MDA-MB-231; MDA-MB-231, class by intensity of antitumor effect (ΔT/C)): Shrinkage line (Cancer cell lines which showed ΔT/C<−30% were classified as shrinkage lines) | ΔT/C (DU145; DU145, Prostate cancer, 100 mg/kg twice a day, one week, oral, day 8 vs day 1): −60% | Classification (DU145; DU145, class by intensity of antitumor effect (ΔT/C)): Shrinkage line (Cancer cell lines which showed ΔT/C<−30% were classified as shrinkage lines) | ΔT/C (AZ-521; AZ-521, Gastric cancer, 100 mg/kg twice a day, one week, oral, day 8 vs day 1): −57% | Classification (AZ-521; AZ-521, class by intensity of antitumor effect (ΔT/C)): Shrinkage line (Cancer cell lines which showed ΔT/C<−30% were classified as shrinkage lines) | ΔT/C (Lovo; Large bowel cancer, 100 mg/kg twice a day, one week, oral, day 8 vs day 1): −11% | Classification (Lovo; [6]): Rest line (cancer cell lines which showed −30%<ΔT/C<10% were classified as rest lines) | ΔT/C (SK-Mel-2; SK-Mel-2, Melanoma, 100 mg/kg twice a day, one week, oral, day 8 vs day 1): −2.5% | Classification (SK-Mel-2; SK-Mel-2, class by intensity of antitumor effect (ΔT/C)): Rest line (cancer cell lines which showed −30%<ΔT/C<10% were classified as rest lines) | ΔT/C (AsPC-1 [3]; AsPC-1, Pancreatic cancer, 100 mg/kg twice a day, one week, oral, day 8 vs day 1): −8% | Classification (AsPC-1 [3]; AsPC-1, class by intensity of antitumor effect (ΔT/C)): Rest line (cancer cell lines which showed −30%<ΔT/C<10% were classified as rest lines) | ΔT/C (A431; A431, Epidermoid carcinoma, 100 mg/kg twice a day, one week, oral, day 8 vs day 1): −8% | Classification (A431; A431, class by intensity of antitumor effect (ΔT/C)): Rest line (cancer cell lines which showed −30%<ΔT/C<10% were classified as rest lines) | ΔT/C (SW620; SW620, Large bowel cancer, 100 mg/kg twice a day, one week, oral, day 8 vs day 1): 22% | Classification (SW620; SW620, class by intensity of antitumor effect (ΔT/C)): Proliferation line (cancer cell lines which showed 10%<ΔT/C were classified as proliferation lines) | ΔT/C (DLD-1; DLD-1, Large bowel cancer, 100 mg/kg twice a day, one week, oral, day 8 vs day 1): 52% | Classification (DLD-1; DLD-1, class by intensity of antitumor effect (ΔT/C)): Proliferation line (cancer cell lines which showed 10%<ΔT/C were classified as proliferation lines) | ΔT/C (HCT116; HCT116, Large bowel cancer, 100 mg/kg twice a day, one week, oral, day 8 vs day 1): 17% | Classification (HCT116; HCT116, class by intensity of antitumor effect (ΔT/C)): Proliferation line (cancer cell lines which showed 10%<ΔT/C were classified as proliferation lines) | ΔT/C (A375; A375, Melanoma, 100 mg/kg twice a day, one week, oral, day 8 vs day 1): 26% | Classification (A375; A375, class by intensity of antitumor effect (ΔT/C)): Proliferation line (cancer cell lines which showed 10%<ΔT/C were classified as proliferation lines) | ΔT/C (LOX; [7]): 42% | Classification (LOX; [6]): Proliferation line (cancer cell lines which showed 10%<ΔT/C were classified as proliferation lines) | ΔT/C (HMV-1; HMV-1, Melanoma, 100 mg/kg twice a day, one week, oral, day 8 vs day 1): 19% | Classification (HMV-1; HMV-1, class by intensity of antitumor effect (ΔT/C)): Proliferation line (cancer cell lines which showed 10%<ΔT/C were classified as proliferation lines) | ΔT/C (SEKI; [7]): 110% | Classification (SEKI; [6]): Proliferation line (cancer cell lines which showed 10%<ΔT/C were classified as proliferation lines) | ΔT/C (FEM; [7]): 55% | Classification (FEM; [6]): Proliferation line (cancer cell lines which showed 10%<ΔT/C were classified as proliferation lines) | ΔT/C (PC-3; PC-3, Prostate cancer, 100 mg/kg twice a day, one week, oral, day 8 vs day 1): 54% | Classification (PC-3; PC-3, class by intensity of antitumor effect (ΔT/C)): Proliferation line (cancer cell lines which showed 10%<ΔT/C were classified as proliferation lines) | ΔT/C (H526 [4]; H526, Small cell lung cancer, 100 mg/kg twice a day, one week, oral, day 8 vs day 1): 22% | Classification (H526 [4]; H526, class by intensity of antitumor effect (ΔT/C)): Proliferation line (cancer cell lines which showed 10%<ΔT/C were classified as proliferation lines) | tumor proliferation (AsPC-1 [1]; [8]): rested | tumor proliferation (H526 [2]; [8]): delayed
